In US8034939B2, “Isoindole derivatives, compositions containing same, preparation thereof and pharmaceutical uses thereof in particular as inhibitors of chaperone protein Hsp90 activities” (Aventis Pharma S.A.., priority 2005, dated 2011):

Biological target: Hsp82 (Saccharomyces cerevisiae, UniProt P02829)
Experiment: Hsp82 ATPase activity, PK/LDH coupled enzymatic assay (also malachite green method)
Type: biochemical
Conditions: 1 μM Hsp82, 250 μM ATP, 37° C.
Description: The […] released during the hydrolysis of ATP by the ATPase activity of Hsp82 is quantified by the malachite green method. In the presence of this reagent, formation of the inorganic phosphate-molybdate-malachite green complex occurs, which complex absorbs at a wavelength of 620 nm. The products to be evaluated are incubated in a reaction volume of 30 μl, in the presence of 1 μM Hsp82 and of […] of substrate (ATP) in a buffer composed of 50 mM Hepes-NaOH (pH 7.5), 1 mM DTT, 5 mM MgCl2 and 50 mM KCl at 37° C. for 60 minutes. In parallel, a range of inorganic phosphate between 1 and 40 μM is prepared in the same buffer. […] After incubation at ambient temperature for 20 minutes, the absorbance of the various wells is measured using a microplate reader at 620 nm. The concentration of […] of each sample is then calculated from the standard curve. The ATPase activity of Hsp82 is expressed as concentration of inorganic phosphate produced in 60 minutes. The effect of the various products tested is expressed as percentage inhibition of the ATPase activity. […]
The products tested are incubated in a reaction volume of 100 μl of buffer composed of 100 mM Hepes-NaOH (pH 7.5), 5 mM MgCl2, 1 mM DTT, 150 mM KCl, 0.3 mM NADH, 2.5 mM PEP and 250 μM ATP. […] The enzymatic activity of Hsp82 is then measured, continuously, in a microplate reader, at 37° C., at the wavelength of 340 nm. […]

Hsp82, sequence (P02829 whole entry): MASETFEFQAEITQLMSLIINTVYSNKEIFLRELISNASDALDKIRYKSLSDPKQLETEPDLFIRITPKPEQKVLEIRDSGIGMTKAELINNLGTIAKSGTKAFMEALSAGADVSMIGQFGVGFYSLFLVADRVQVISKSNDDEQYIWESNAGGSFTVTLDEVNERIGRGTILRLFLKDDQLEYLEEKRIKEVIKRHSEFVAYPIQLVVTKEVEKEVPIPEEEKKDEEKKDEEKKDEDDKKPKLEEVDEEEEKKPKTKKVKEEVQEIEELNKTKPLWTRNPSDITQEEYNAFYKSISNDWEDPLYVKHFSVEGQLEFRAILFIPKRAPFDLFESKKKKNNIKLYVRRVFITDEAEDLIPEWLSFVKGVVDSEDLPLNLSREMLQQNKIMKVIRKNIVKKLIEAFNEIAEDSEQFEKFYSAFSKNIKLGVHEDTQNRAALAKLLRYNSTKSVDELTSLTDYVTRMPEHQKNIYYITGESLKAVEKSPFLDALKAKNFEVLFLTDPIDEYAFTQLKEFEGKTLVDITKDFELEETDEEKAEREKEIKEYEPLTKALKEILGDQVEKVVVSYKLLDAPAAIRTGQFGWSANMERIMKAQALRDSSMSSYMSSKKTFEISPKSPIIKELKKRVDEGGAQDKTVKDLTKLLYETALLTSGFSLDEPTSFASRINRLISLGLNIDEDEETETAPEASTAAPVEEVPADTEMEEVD

| IC50 [µM] | Compound |
| --- | --- |
| 10 to 100 | O=C1c2ccccc2C2=C(c3nc4ccc(O)cc4[nH]3)CCCN12 [Example 2, 1-{1-H-6-hydroxybenzimidazol-2-yl}-3,4-dihydro-2H-pyrido[2,1-a]isoindole-6-one] |
| 1 to 10 | O=C1c2ccccc2C2=C(c3nc4ccncc4[nH]3)CCCN12 [Example 1, 1-{3-H-imidazo[4,5-c]pyridin-2-yl}-3,4-dihydro-2H-pyrido[2,1-a]-isoindole-6-one] |
